Patent US20080305186A1, “Method and Composition for the Treatment of Cardiac Hypertrophy” (BOARD OF REGENTS, THE UNIVERSITY OF TEXAS SYSTEM, priority 2007, published 2008)

Tested on: cardiac gene expression
Assay: Microarray analysis of cardiac gene expression (GeneChip Mouse Genome 430 2.0)
Format: in vivo, mice
Procedure: Microarray Sample Preparation and Analysis. Animal hearts were rapidly removed, and the atria and right ventricles were cut and immediately plunged into TRIzol Reagent (Life Technologies). Total RNA was isolated following the manufacturer's instructions, purified by phenol-chloroform extraction and then ethanol precipitation, and 20 μg further processed for microarray analysis. Briefly, cDNA synthesis, in vitro transcription, and labeling and fragmentation to produce the oligonucleotide probes were performed as instructed by the GeneChip manufacturer (Affymetrix). The probes were first hybridized to a test array (Affymetrix) and then to the GeneChip Mouse Genome 430 2.0 Array, using the GeneChip Hybridization Oven 640. The chips were washed in a GeneChip Fluidics Station 450 (Affymetrix), and the results were visualized with a GeneChip G7 scanner (Affymetrix). RMA normalization, pairwise comparisons, Student's t test and Benjamini and Hochberg correction were subsequently performed using GeneSifter (VizX Labs, Seattle, Wash.) and Spotfire DecisionSite 8.3 (Spotfire, Inc., Somerville, Mass.).
Effects on Gene Expression Profile. […] One mouse heart was used for each array, and was performed in triplicate, generating a total of 12 arrays. GeneSifter was used to perform RMA normalization, pairwise comparisons of averaged signal intensity values, and Student's t-test with Benjamini and Hochberg correction, and Spotfire was used to perform pairwise comparisons. […] Additionally, genes that were altered between any two N or cardiac hypertrophy samples were removed, as these alterations most likely represented normal variations between mice.

[1] = mouse heart, vs isoproterenol only (CH), CH vs normal −1.7
[2] = mouse heart, vs isoproterenol only (CH), CH vs normal −1.8
[3] = mouse heart, vs isoproterenol only (CH), CH vs normal −1.9
[4] = mouse heart, vs isoproterenol only (CH), CH vs normal −2.0
[5] = mouse heart, vs isoproterenol only (CH), CH vs normal −2.1
[6] = mouse heart, vs isoproterenol only (CH), CH vs normal −2.4
[7] = mouse heart, vs isoproterenol only (CH), CH vs normal −2.5
[8] = mouse heart, vs isoproterenol only (CH), CH vs normal −2.6
[9] = mouse heart, vs isoproterenol only (CH), CH vs normal −2.7
[10] = mouse heart, vs isoproterenol only (CH), CH vs normal −2.8
[11] = mouse heart, vs isoproterenol only (CH), CH vs normal −2.9
[12] = mouse heart, vs isoproterenol only (CH), CH vs normal −3.0
[13] = mouse heart, vs isoproterenol only (CH), CH vs normal −3.2
[14] = mouse heart, vs isoproterenol only (CH), CH vs normal −3.3
[15] = mouse heart, vs isoproterenol only (CH), CH vs normal −3.9

C[C@H]1c2cccc(O)c2C(=O)C2=C(O)[C@]3(O)C(=O)C(C(N)=O)=C(O)[C@@H](N(C)C)[C@@H]3[C@@H](O)[C@@H]21 [doxycycline]
FC EphrinB3 (Efnb3), BQ175608 [1]: 1.6 fold
FC Nuclear factor IB (Nfib), BB092799 [1]: 4.0 fold
FC Preimplantation protein 4 (Prei4), BB550273 [1]: 3.6 fold
FC Triple futional domain (PTPRF interacting) (Trio), BB794936 [1]: 3.0 fold
FC cDNA, AK020162 [1]: 1.7 fold
FC ATPase, Na+/K+ transporting, alpha 1 polypeptide (Atp1a1), BC025618 (mouse heart, vs isoproterenol only (CH), CH vs normal −1.7, first BC025618 line): 2.4 fold
FC EST, BB126796 [2]: 6.5 fold
FC EST, BB451134 [2]: 7.5 fold
FC Metastasis suppressor 1 (Mtss1), BB326749 [2]: 2.0 fold
FC Tetratricopeptide repeat domain (Ttc3), BB833716 [2]: 3.0 fold
FC EST, BM941198 [3]: 3.2 fold
FC Jumonji, AT rich interactive domain 1A (Rbp2 like) (Jarid1a), BB376407 [3]: 2.6 fold
FC cDNA, BB006809 [3]: 2.1 fold
FC Guanine nucleotide binding protein, alpha 12 (Gna12), NM_010302 [4]: 3.0 fold
FC Zi finger and BTB domain containing 20 (Zbtb20), BB175650 [4]: 2.3 fold
FC cDNA, BC002200 [4]: 4.8 fold
FC ATPase, Na+/K+ transporting, alpha 1 polypeptide (Atp1a1), BC025618 (mouse heart, vs isoproterenol only (CH), CH vs normal −2.0, second BC025618 line): 2.7 fold
FC Adenylate kinase 4 (Ak4), NM_009647 [5]: 2.2 fold
FC Beta-tubulin gene M-beta-2 (Tubb2a), M28739 [5]: 1.7 fold
FC C1q and tumor necrosis factor related protein 4 (C1qtnf4), NM_026161 [5]: 1.5 fold
FC Cold inducible RNA binding protein (Cirbp), NM_007705 [5]: 1.7 fold
FC Coronin, actin binding protein 1C (Coro1c), NM_011779 [5]: 2.1 fold
FC Adrenergic receptor, alpha 1b (Adra1b), NM_007416 (mouse heart, vs isoproterenol only (CH), CH vs normal −2.3): 1.8 fold
FC CXXC finger 5 (Cxxc5), AK015150 [6]: 2.1 fold
FC DNA segment, Chr 9, ERATO Doi 256, expressed, BG066667 [6]: 3.3 fold
FC Insulin degrading enzyme (Ide), AK014703 [6]: 2.1 fold
FC Sno, strawbeny notch homolog 1 (Sno1), BE947961 [6]: 3.0 fold
FC cDNA, BB748887 [6]: 3.9 fold
FC B-cell translocation gene 2, anti-proliferative (Btg2), BG965405 [7]: 2.2 fold
FC cDNA, BC026793 [7]: 2.5 fold
FC Cbp/p300-interacting transactivator, with Glu/Asp-rich carboxy-terminal domain, 4 (Cited4), BC025116 [8]: 2.0 fold
FC Desmoglein 2 (Dsg2), AB072269 [8]: 3.0 fold
FC Heat shock protein, 84 kDa 1 (Hsp90ab1), BI154147 [8]: 8.7 fold
FC Myocyte enhaer factor 2C (Mef2c), AI595932 [8]: 4.5 fold
FC Restin-like 2 (Rsnl2), AK018895 [8]: 3.8 fold
FC Jumonji domain containing 3 (Jmjd3), AW763746 [9]: 5.0 fold
FC cDNA (similar to integrin beta 1 binding protein 3), AK009897 [9]: 4.0 fold
FC ADP-ribosylation factor 2 (Arf2), AV023312 [10]: 2.5 fold
FC Karyopherin (importin) beta 1 (Kpnb1), AW544889 [10]: 3.6 fold
FC PPAR gamma coactivator-1beta protein (Ppargc1b), NM_133249 [11]: 4.4 fold
FC SET and MYND domain containing 1 (Smyd1), NM_009762 [11]: 2.7 fold
FC cDNA, AK013448 [11]: 2.6 fold
FC Dual specificity phosphatase 8 (Dusp8), NM_008748 [12]: 2.8 fold
FC GATA binding protein 4 (Gata4), NM_008092 [12]: 2.7 fold
FC ATP synthase, H+ transporting, mitochondrial F1 complex, alpha subunit, isoform 1 (Atp5a1), C78762 (mouse heart, vs isoproterenol only (CH), CH vs normal −3.1): 1.7 fold
FC Actin, beta, cytoplasmic (Actb), AW537707 [13]: 4.9 fold
FC Methionine sulfoxide reductase B3 (Msrb3), BB277041 [13]: 7.2 fold
FC Cyclin D1 (Ccnd1), BB538325 [14]: 2.7 fold
FC Thymoma viral proto-oogene 1 (Akt1), M94335 [14]: 2.1 fold
FC cDNA, BB283973 [14]: 4.1 fold
FC cDNA, BB534971 (mouse heart, vs isoproterenol only (CH), CH vs normal −3.5): 2.9 fold
FC cDNA, BB026304 (mouse heart, vs isoproterenol only (CH), CH vs normal −3.8): 4.1 fold
FC Connexin 43 (alpha-1 gap jution) (Gja1), M63801 [15]: 3.6 fold
FC Kinesin-like protein (Kif1b), D17577 [15]: 4.8 fold
FC Kv channel-interacting protein 2a (Kcnip2), AF439339 (mouse heart, vs isoproterenol only (CH), CH vs normal −4.4): 3.7 fold
FC Potassium voltage-gated channel, Isk-related subfamily, member 1 (Kcne1), NM_008424 (mouse heart, vs isoproterenol only (CH), CH vs normal −4.6): 1.5 fold
FC Tumor rejection antigen gp96 (Tra1); heat shock protein 90 kDa beta (Grp94), member 1 (Hsp90b1), BE995678 (mouse heart, vs isoproterenol only (CH), CH vs normal −9.4): 8.0 fold
FC Cadherin 13 (Cdh13), AK016527 (mouse heart, vs isoproterenol only (CH), CH vs normal −10.0): 9.8 fold
FC cDNA (D site albumin promoter binding protein, Dbp), BB550183 (mouse heart, vs isoproterenol only (CH), CH vs normal −11.5): 12.0 fold
number of the 472 cardiac hypertrophy-specific Combo-altered genes also altered by the drug alone (statistical parameters lifted (average fold-changes irrespective of statistical measures)): 453
